In patent US4588718A, “Carboxy containing ester prodrugs of corticosteroids” (The Upjohn Company, priority 1984, dated 1986):

What was measured:
[1] = physchem; format: physicochemical; conditions: water, pH 4.8, water
Excerpt: The compounds of this invention tend to be free flowing non-hygroscopic crystalline solids when in the acid form. While the aqueous solubility of these prodrugs is limited at very low pH values, these compounds become very soluble at pH values around 5 or higher. In this pH range the prodrugs self-associate to form micellar solutions.

[2] = format: physicochemical; conditions: for t 90% (time for 10% hydrolysis): 25° C., dilute aqueous solution, at the pH of optimum stability (Example 1: pH 4.7; Example 2: pH 4.6)
Experimental: The most important reaction affecting shelf-life is hydrolysis of the ester or carbonate linkage. From the hydrolysis rate constants determined at 25° C. at various pH values for dilute aqueous solutions of the compounds of this invention, estimates of ^t 90% (time for 10% hydrolysis) may be calculated. Such values, calculated at the pH of optimum stability, for the compounds of Examples 1 and 2 are listed in Table I. The actual shelf-life of formulations of the above compounds would be expected to differ from the above estimates for several reasons. (1) The solubility of the parent corticosteroid formed on hydrolysis may be exceeded prior to 10% degradation of the ester. Micelle formation by the intact prodrugs results in solubilization of free corticosteroid thereby prolonging shelf-life. The degree of solubilization varies with the ester concentration, nature of the pro-moiety, and the structure of the corticosteroid. (2) Other degradation reactions besides hydrolysis may be expected to occur. These should in general be diminished due to micelle formation and can in some cases be controlled by the addition of chelating agents, antioxidants, etc. (3) Micelle formation in concentrated solutions also results in stabilization of the ester linkage toward base catalyzed hydrolysis. For example, the base catalyzed hydrolysis rate constant in a 0.267M solution of the compound of Example 1 is less than 20% the rate constant in a 5×10^-4 M solution.

[3] = Bioconversion to the parent steroid in vivo (blood levels of test compound and parent steroid); conditions: four female monkeys, dose equivalent to 7.5 mg/kg, injection, blood samples 0 to 8 hours; compared with methylprednisolone hemisuccinate
Experimental: Since the compounds of Formula I are prodrugs of the parent corticosteroids, their efficacy depends on bioconversion to liberate the free corticoid in vivo. […] Four female monkeys having synchronized menstrual cycles were given on separate days three days apart doses of the compound of Examples 1 and 2 and methylprednisolone hemisuccinate equivalent to 7.5 mg/kg. Prior to dosing the monkeys were fasted overnight and each was anesthetized during dosing. A few mls of 0.01μ ion strength pH 5 sodium acetate buffer was added to the test compound and 1N sodium hydroxide was added slowly with rapid stirring until all the solids went into solution just prior to injection. Blood samples were withdrawn at times 0, 1/12, 1/4, 1, 2, 4 and 8 hours from administration of test compound and levels of test compound and parent steroid were measured.

Compound | solubility [1] | pH of optimum stability [2] | base catalyzed hydrolysis rate constant in a 0.267M solution relative to the rate constant in a 5×10^-4 M solution ([2]; 0.267M vs 5×10^-4 M solution) | t 90% (time for 10% hydrolysis) [2] | conversion to the parent steroid (methylprednisolone) in vivo [3]
C[C@H]1C[C@@H]2[C@H]([C@@H](O)C[C@@]3(C)[C@H]2CC[C@]3(O)C(=O)COC(=O)CCCCCS(=O)(=O)CC(=O)O)[C@@]2(C)C=CC(=O)C=C12 [Example 1, methylprednisolone, 21-[6'-(carboxymethylsulfonyl)hexanoate]] | > 160 mg/mL | 4.7 | less than 20% | 2.0 years | to at least the same extent as was methylprednisolone hemisuccinate
C[C@H]1C[C@@H]2[C@H]([C@@H](O)C[C@@]3(C)[C@H]2CC[C@]3(O)C(=O)COC(=O)CCCCC[S+]([O-])CC(=O)O)[C@@]2(C)C=CC(=O)C=C12 (some centres unmarked) [Example 2, methylprednisolone-21-[6'-(carboxymethylsulfinyl)hexanoate]] |  | 4.6 |  | 0.93 years | to at least the same extent as was methylprednisolone hemisuccinate
